Experimental data reported in patent publication US20250339405A1, “a-SYNUCLEIN AGGREGATE BINDING AGENT AND IMAGING METHOD” (National Institutes for quantum and Radiological Science …, priority 2019, published 2025).

How the values were obtained:
[1] = target: T1, lesion composed of the phosphorylated α-synuclein (Mus musculus, UniProt O55042); assay: In vitro fluorescence microscope measurement, α-synuclein fibril-injected mouse brain sections; type: binding; settings: 30 μM, 20% ethanol, 30 minutes, room temperature
T1 construct: from tissue; host or cells: brain of C57BL/6 mice inoculated in the striatum with recombinant murine α-synuclein fibrils (made in E. coli)
Method: First, murine α-synuclein was expressed in and extracted from E. coli as a recombinant protein, and incubated in vitro to form an insoluble α-synuclein aggregate.
Note that the α-synuclein aggregate was inoculated into the striatum of the mouse with the following manner. First, hair on the head of 9-week-old C57BL/6 male mouse anesthetized with 1.5% (v/v) isoflurane was removed, and the scalp was disinfected with isodine, followed by application of xylocaine and incision in the scalp to expose the skull. […]
The brain of the α-synuclein fibril-injected mouse was extracted, sectioned, and analyzed by fluorescent staining. […] After mounting the sections using a mounting medium (VECTASHIELD H-1000), images of α-synuclein aggregate-enriched areas on the sections were obtained using a fluorescence microscope (DM4000). […] Immunohistochemical staining with an anti-phosphorylated α-synuclein monoclonal antibody (pS129, abcam, ab59264) (1:1000) was carried out, and after mounting the sections using a mounting medium (VECTASHIELD H-1000), images of the same areas were obtained using the fluorescence microscope (DM4000).

α-synuclein lesions [2] = target: T2, α-synuclein lesions (Mus musculus, UniProt O55042); assay: Ex vivo imaging of α-synuclein fibril-injected model mouse brain; type: in vivo
T2 construct: from tissue; host or cells: brain of C57BL/6 mice inoculated in the striatum with recombinant murine α-synuclein fibrils (made in E. coli)
Method: A model mouse at 6 weeks after the injection of the α-synuclein fiber solution was anesthetized with 1.5% (v/v) isoflurane in a manner similar to that described in “(Preparation of α-synuclein fibril-injected mouse model)” above, and C05-05 (1.66 mg/kg) or BF-227 (1.66 mg/kg) was intraperitoneally administered.
The brains were collected and frozen 90 minutes after the administration of C05-05 (or 120 minutes after the administration of BF-227), and frozen sections with the thickness of 20 μm were prepared in a cryostat (HM560). After mounting the sections using a mounting medium (VECTASHIELD H-1000), images of α-synuclein aggregate-enriched areas on the sections were obtained using a fluorescence microscope (DM4000).
Moreover, the same sections were immersed and fixed overnight in a phosphate buffer solution containing 4% paraformaldehyde. The brain after fixation was washed under running water and then treated with an autoclave for the antigen retrieval. Immunohistochemical staining with an anti-phosphorylated α-synuclein monoclonal antibody (pS129, abcam, ab59264) (1:1000) was carried out, and after mounting the sections using a mounting medium (VECTASHIELD H-1000), images of the same areas were obtained using the fluorescence microscope (DM4000). FIG. 7(a) contains images showing the case where C05-05 was administered, and FIG. 7(b) is images showing the case where BF-227 was administered.

α-synuclein lesions [3] = target: T2, α-synuclein lesions; assay: In vivo two-photon laser scanning fluorescence microscopy of α-synuclein fibril-injected model mouse
Method: Note that the α-synuclein aggregate was inoculated into the striatum of the mouse with the following manner. First, hair on the head of 9-week-old C57BL/6 male mouse anesthetized with 1.5% (v/v) isoflurane was removed, and the scalp was disinfected with isodine, followed by application of xylocaine and incision in the scalp to expose the skull. Then, a hole was drilled in the skull at a position of 0.05 mm posterior to the bregma and 2 mm lateral to the midline, and 3 μl of an α-synuclein fiber solution (murine α-synuclein fiber (4 mg/ml) in saline) was injected into a position […] ventral to the brain surface using a glass pipette, and then the scalp was returned and sutured.
A model mouse was anesthetized with 1.5% (v/v) isoflurane 6 weeks after the injection of the α-synuclein fiber solution, and a cranial window was provided according to the Seylaz-Tomita method (Tomita et al. J Cereb Blood Flow Metab 25, 858-67, 2005). The mouse was anesthetized with 1.5% (v/v) isoflurane 2 weeks after the generation of the cranial window, and 50 μl of a solution of DMSO/physiological saline water=1:1 containing 0.05% of C05-05 or PBB3 was administered via the tail vein. The mouse was fixed under a two-photon laser fluorescence microscope 90 minutes after administration of C05-05 or 30 minutes after administration of PBB3, and 100 μl of a saline solution containing 5 mM of Sulforhodamine 101 was administered intraperitoneally, followed by intravital two-photon fluorescence imaging at an excitation wavelength of 900 nm. The detection wavelengths for C05-05 and PBB3 were set at 500 nm to 550 nm, and detection wavelengths for Sulforhodamine 101 were set at 573 nm to 648 nm.

[4] = target: T3, α-synuclein aggregate formed in the brain of the DLB patient (Homo sapiens, UniProt P37840); assay: In vitro fluorescence microscope measurement, DLB patient brain sections; type: binding; settings: 30 μM compound, 50% ethanol, 30 minutes, room temperature, amygdala sections
T3 construct: Postfixed fresh frozen sections of the amygdala tissue of the DLB patient; from tissue; host or cells: post-mortem human DLB amygdala, frozen sections
From the text: Postmortem human brains were obtained from autopsies carried out with respect to a dementia with Lewy bodies (DLB) and Alzheimer's disease (AD) patients.
A frozen DLB tissue was sliced with a thickness of 20 μm in a cryostat (HM560, Carl Zeiss).
Postfixed fresh frozen sections of the amygdala tissue of the DLB patient and formalin fixed, paraffin embedded sections of a deparaffinized middle frontal gyrus tissue of the AD patient were used. Thirty μM of each of the above compounds and brain sections were incubated in a 50% ethanol solution for 30 minutes at room temperature. The sections were then washed twice, i.e., washed with a 50% ethanol solution for 5 minutes and with ultrapure water for 3 minutes. After mounting the sections using a mounting medium (VECTASHIELD H-1000, Vector Laboratories), images of lesion-enriched areas on the sections were obtained using a fluorescence microscope (DM4000, Leica). Analysis software (Image J) was used to quantify the fluorescence of lesion-enriched and lesion-free (background) areas.

[5] = target: T4, A53T mutant human α-synuclein (Homo sapiens, UniProt P37840, A53T); assay: Inhibitory effect on α-synuclein aggregation (seeded, sarkosyl-insoluble fraction, CBB staining); type: biochemical; settings: 37° C., 1 day
T4 construct: made in house; host or cells: E. coli
Method: First, A53T mutant human α-synuclein was expressed in and extracted from E. coli as a recombinant protein, and incubated in vitro to prepare α-synuclein aggregate seeds. To 0.02 μg of the α-synuclein aggregate seeds, C05-05 (in DMSO solution) was added at a final concentration of 20 μM, or 200 μM and stirred. An experiment in which only DMSO was added was conducted as a control experiment. These were suspended with 50 μL of A53T mutant human-synuclein monomer solution at a concentration of 1 mg/ml and then shaken at 37° C. for 1 day. Ten μL of the suspension was mixed with 90 μL of 1% sarkosyl and ultracentrifuged at 100 Krpm for 20 minutes, and a resulting precipitate was subjected to electrophoresis, followed by CBB staining of the gel. Images of the gels were obtained using an imager, and quantification of bands was carried out using analysis software (Image J).

- entry into the brain (ex vivo imaging) (α-synuclein lesions [2]; 1.66 mg/kg, model mouse): entered the brain
- detection of α-synuclein lesions by ex vivo imaging (α-synuclein lesions [2]; 1.66 mg/kg, brains collected 90 minutes after C05-05 or 120 minutes after BF-227): bound to individual α-synuclein lesions
- contrast in detecting lesions relative to BF-227 (α-synuclein lesions [2]; ex vivo imaging): higher contrast than BF-227
- contrast in detecting lesions relative to PBB3 (α-synuclein lesions [3]; intravital two-photon imaging): higher contrast than PBB3
- detection of α-synuclein lesions by intravital two-photon fluorescence imaging (α-synuclein lesions [3]; tail vein, 50 μl of 0.05% solution, 90 minutes after C05-05 or 30 minutes after PBB3): bound to individual α-synuclein lesions
- entry into the brain after intravenous injection (α-synuclein lesions [3]; tail vein, model mouse): entered the brain of the living body
- reduction of formation of insoluble α-synuclein aggregate compared with control experiment (DMSO) ([5]; final concentration 20 μM): approximately 20%
- reduction of formation of insoluble α-synuclein aggregate compared with control experiment (DMSO) ([5]; final concentration 200 μM): approximately 60%
Compound: CNc1ccc(C#C/C=C/c2nc3ccc(OCC(O)CF)cc3s2)cn1 (stereo not shown) [C05-05, (E)-1-fluoro-3-(2-(4-(6-(methylamino)pyridin-3-yl)but-1-en-3-ynyl)benzo[d]thiazol-6-yloxy)propan-2-ol]
- binding to phosphorylated α-synuclein lesion (co-staining with pS129 antibody) [1]: binds to the lesion composed of the phosphorylated α-synuclein
- binding to the α-synuclein aggregate formed in the brain of the DLB patient, reactivity relative to PBB3 [4]: reactivity equal to or greater than that of PBB3
